Source: publication PMC8205226, “HIV-1 Integrase Inhibitors with Modifications That Affect Their Potencies against Drug Resistant Integrase Mutants” (ACS Infectious Diseases, 2021)
Read-outs that look alike come from different tables or passages of the source.

Legend:
[1] = test system: WT HIV-1; experiment: single-round infectivity assay, WT HIV-1 IN vector; assay type: cell-based; settings: Human immunodeficiency virus 1, read-out: EC50 values WT, vector carrying WT HIV-1 IN, single round infection, n = 4; new compounds
Method: (§1) Figure 2 Antiviral activities of the new compounds against RAL-resistant mutants. The EC50 values were determined using a vector that carries WT HIV-1 IN and the RAL-resistant mutants in a single round infection assay. […] Error bars represent the standard deviations of independent experiments, n = 4, performed in triplicate. The graph has a maximum value of 550 nM.
(§2) WT and mutant HIV-1 viral vectors were used in single-round infectivity assays to determine the antiviral potencies (EC50 values) of the compounds and the effects of the mutants on the EC50 values as previously described.[30],[54] Single round infectivity measurements were determined as done previously.[38]
(§3) The vector pNLNgoMIVR-ΔENV.LUC has been described previously.[26] To produce the new IN mutants used in this study, the IN open reading frame was removed from pNLNgoMIVR-ΔENV.LUC by digestion with KpnI and SalI, and the resulting fragment was inserted between the KpnI and SalI sites of pBluescript KS+. Using that construct as the wild-type template, we prepared the following HIV-1 IN mutants using the QuikChange II XL site directed mutagenesis kit (Agilent Technologies, Santa Clara, CA) protocol: N117A, N117H, P142A, P142H, P142S, Y143C, Y143H, S230R, R231G, and R231K. The following sense oligonucleotides were used with matching cognate antisense oligonucleotides (not shown) (Integrated DNA Technologies, Coralville, IA) in the mutagenesis: N117A, 5′-[…]-3′; N117H, 5′-[…]-3′; P142A, 5′-[…]-3′; P142H, 5′-[…]-3′; P142S, 5′-[…]-3′; Y143C, 5′- […]-3′; Y143H, 5′-[…]-3′; S230R, 5′- […]-3′; R231G, 5′-[…]-3′; R231K, 5′-[…]-3′.

[2] = test system: HIV-1 IN mutant Y143R; experiment: single-round infectivity assay, Y143R IN mutant; assay type: cell-based; settings: for FC Y143R: fold change in EC50, IN mutant versus WT HIV-1
Method: as §1, §2, §3

[3] = test system: HIV-1 IN mutant N155H; experiment: single-round infectivity assay, N155H IN mutant; assay type: cell-based; settings: for FC N155H: fold change in EC50, IN mutant versus WT HIV-1
Method: as §1, §2, §3

[4] = test system: HIV-1 IN double mutant G140S/Q148H; experiment: single-round infectivity assay, G140S/Q148H IN double mutant; assay type: cell-based; settings: for FC G140S/Q148H: fold change in EC50, IN mutant versus WT HIV-1
Method: as §1, §2, §3

[5] = test system: HIV-1 IN mutant N117A; experiment: single-round infectivity assay, N117A IN mutant; assay type: cell-based; settings: for EC50: Human immunodeficiency virus 1, read-out: EC50 values N117A; for FC N117A: fold change in EC50, IN mutant versus WT HIV-1
Method: (§4) The EC50 values were determined using a vector that carries the IN mutant in a single round infection assay. […] Error bars represent the standard deviations of independent experiments, n = 4, performed in triplicate.
as §2, §3

[6] = test system: HIV-1 IN mutant N117H; experiment: single-round infectivity assay, N117H IN mutant; assay type: cell-based; settings: for EC50: Human immunodeficiency virus 1, read-out: EC50 values N117H; for FC N117H: fold change in EC50, IN mutant versus WT HIV-1
Method: as §4, §2, §3

[7] = test system: HIV-1 IN mutant G118R; experiment: single-round infectivity assay, G118R IN mutant; assay type: cell-based
Method: as §4, §2, §3

[8] = test system: HIV-1 IN mutant S119R; experiment: single-round infectivity assay, S119R IN mutant; assay type: cell-based; settings: for EC50: Human immunodeficiency virus 1, read-out: EC50 values S119R; for FC S119R: fold change in EC50, IN mutant versus WT HIV-1
Method: as §4, §2, §3

[9] = test system: HIV-1 IN mutant Y143C; experiment: single-round infectivity assay, Y143C IN mutant; assay type: cell-based
Method: as §4, with “Figure 4 Mutations in the β5-α3 loop affect the antiviral potencies of the new compounds. The” for “The”
as §2, §3

[10] = test system: HIV-1 IN mutant Y143H; experiment: single-round infectivity assay, Y143H IN mutant; assay type: cell-based
Method: as §4, with “Figure 4 Mutations in the β5-α3 loop affect the antiviral potencies of the new compounds. The” for “The”
as §2, §3

[11] = test system: HIV-1 IN mutant P142A; experiment: single-round infectivity assay, P142A IN mutant; assay type: cell-based; settings: for EC50: Human immunodeficiency virus 1, read-out: EC50 values P142A
Method: as §4, with “Figure 4 Mutations in the β5-α3 loop affect the antiviral potencies of the new compounds. The” for “The”
as §2, §3

[12] = test system: HIV-1 IN mutant P142H; experiment: single-round infectivity assay, P142H IN mutant; assay type: cell-based; settings: for EC50: Human immunodeficiency virus 1, read-out: EC50 values P142H
Method: as §4
Single round infectivity measurements were determined as done previously.[38]
as §3

[13] = test system: HIV-1 IN mutant P142S; experiment: single-round infectivity assay, P142S IN mutant; assay type: cell-based; settings: for EC50: Human immunodeficiency virus 1, read-out: EC50 values P142S
Method: as §4, with “Figure 4 Mutations in the β5-α3 loop affect the antiviral potencies of the new compounds. The” for “The”
as §2, §3

[14] = test system: HIV-1 IN mutant S230R; experiment: single-round infectivity assay, S230R IN mutant; assay type: cell-based; settings: for EC50: Human immunodeficiency virus 1, read-out: EC50 values S230R; for FC S230R: fold change in EC50, IN mutant versus WT HIV-1
Method: as §4, with “Figure 5 Antiviral potencies of the new compounds against IN with mutations in the […]. The” for “The”
as §2, §3

[15] = test system: HIV-1 IN mutant R231G; experiment: single-round infectivity assay, R231G IN mutant; assay type: cell-based; settings: for EC50: Human immunodeficiency virus 1, read-out: EC50 values R231G; for FC R231G: fold change in EC50, IN mutant versus WT HIV-1
Method: as §4, with “Figure 5 Antiviral potencies of the new compounds against IN with mutations in the […]. The” for “The”
as §2, §3

[16] = test system: HIV-1 IN mutant R231K; experiment: single-round infectivity assay, R231K IN mutant; assay type: cell-based
Method: as §4, with “Figure 5 Antiviral potencies of the new compounds against IN with mutations in the […]. The” for “The”
as §2, §3

[17] = test system: WT HIV-1; settings: vector carrying WT HIV-1 IN, single round infection; previously reported; cited from earlier work
[18] = test system: HIV-1 IN mutant Y143R; settings: single round infection; previously reported; cited from earlier work
[19] = test system: HIV-1 IN mutant N155H; settings: single round infection; previously reported; cited from earlier work
[20] = test system: HIV-1 IN double mutant G140S/Q148H; settings: single round infection; previously reported; cited from earlier work
[21] = test system: HIV-1 IN mutant G118R; settings: single round infection; previously shown; cited from earlier work
[22] = fold change in EC50, IN mutant versus WT HIV-1
[23] = Human immunodeficiency virus 1, read-out: EC50 values Y143H, single round infection, n = 4
[24] = read-out: EC50 values Y143H, single round infection, n = 4
[25] = Human immunodeficiency virus 1, read-out: EC50 values R231K, single round infection, n = 4

O=C(NCc1ccc(F)cc1F)c1c(O)c2cc(CCS(=O)(=O)c3ccccc3)cnc2n(O)c1=O [6w, N-(2,4-Difluorobenzyl)-1,4-dihydroxy-2-oxo-6-(2-(phenylsulfonyl)ethyl)-1,2-dihydro-1,8-naphthyridine-3-carboxamide]
EC50 [1]: 10.6 ± 1 nM | ratio of the EC50s (our compound relative to DTG) against Y143R ([2]; EC50 compound / EC50 DTG): 1.7 | EC50 ([2]; Human immunodeficiency virus 1, read-out: EC50 values Y143R): 7.2 ± 1.7 nM | FC Y143R [2]: 0.7 | ratio of the EC50s (our compound relative to DTG) against N155H ([3]; EC50 compound / EC50 DTG): 3.9 | EC50 ([3]; Human immunodeficiency virus 1, read-out: EC50 values N155H): 14.1 ± 4.3 nM | FC N155H [3]: 1.3 | FC, difference in potencies 6w compared to 4f against G140S/Q148H ([4]; EC50 6w / EC50 4f): 18.8 | ratio of the EC50s (our compound relative to DTG) against G140S/Q148H ([4]; EC50 compound / EC50 DTG): 16.8 | EC50 ([4]; Human immunodeficiency virus 1, read-out: EC50 values G140S/Q148H): 97.5 ± 16.8 nM | FC G140S/Q148H [4]: 9.2 | ratio of the EC50s (our compound relative to DTG) against N117A ([5]; EC50 compound / EC50 DTG): 12.8 | EC50 [5]: 6.4 nM | FC N117A [5]: 0.6 | ratio of the EC50s (our compound relative to DTG) against N117H ([6]; EC50 compound / EC50 DTG): 7.9 | EC50 [6]: 19 ± 1.4 nM | FC N117H [6]: 1.8 | ratio of the EC50s (our compound relative to DTG) against G118R ([7]; EC50 compound / EC50 DTG): 16.8 | EC50 ([7]; Human immunodeficiency virus 1, read-out: EC50 values G118R): 219 ± 29.8 nM | FC G118R [7, 22]: 20.7 | ratio of the EC50s (our compound relative to DTG) against S119R ([8]; EC50 compound / EC50 DTG): 16.6 | EC50 [8]: 38.2 ± 6 nM | FC S119R [8]: 3.6 | ratio of the EC50s (our compound relative to DTG) against Y143C ([9]; EC50 compound / EC50 DTG): 13.4 | EC50 ([9]; Human immunodeficiency virus 1, read-out: EC50 values Y143C, single round infection, n = 4): 18.8 ± 1.4 nM | EC50 ([9]; read-out: EC50 values Y143C, single round infection, n = 4): > 18 nM | ratio of the EC50s (our compound relative to DTG) against Y143H ([10]; EC50 compound / EC50 DTG): 11.4 | EC50 [10, 23]: 25.1 ± 3.6 nM | EC50 [10, 24]: > 18 nM | ratio of the EC50s (our compound relative to DTG) against P142A ([11]; EC50 compound / EC50 DTG): 9.1 | EC50 [11]: 22.8 ± 2.5 nM | ratio of the EC50s (our compound relative to DTG) against P142H ([12]; EC50 compound / EC50 DTG): 9.2 | EC50 [12]: 25.7 ± 2 nM | ratio of the EC50s (our compound relative to DTG) against P142S ([13]; EC50 compound / EC50 DTG): 14.2 | EC50 [13]: 31.2 ± 3.7 nM | ratio of the EC50s (our compound relative to DTG) against S230R ([14]; EC50 compound / EC50 DTG): 2.4 | EC50 [14]: 11.2 ± 1.6 nM | FC S230R [14]: 1.1 | ratio of the EC50s (our compound relative to DTG) against R231G ([15]; EC50 compound / EC50 DTG): 10.9 | EC50 [15]: 15.2 ± 1.4 nM | FC R231G [15]: 1.4 | ratio of the EC50s (our compound relative to DTG) against R231K ([16]; EC50 compound / EC50 DTG): 6.7 | EC50 [16, 25]: 28.2 ± 3.9 nM | FC R231K [16, 22]: 2.7

C[C@@H]1CCO[C@H]2Cn3cc(C(=O)NCc4ccc(F)cc4F)c(=O)c(O)c3C(=O)N12 [DTG, dolutegravir, reference compound]
FC Y143R [2]: 2.7 | FC N155H [3]: 2.3 | FC G140S/Q148H [4]: 3.6 | EC50 [5]: 0.5 nM | FC N117A [5]: 0.3 | EC50 [6]: 2.4 nM | FC N117H [6]: 1.5 | EC50 [8]: 2.3 ± 0.6 nM | FC S119R [8]: 1.4 | FC Y143C [9, 22]: 0.9 | EC50 [10, 23]: 2.2 ± 0.2 nM | FC Y143H [10, 22]: 1.4 | EC50 [10, 24]: < 3 nM | EC50 [11]: 2.5 ± 0.5 nM | FC P142A [11, 22]: 1.6 | EC50 [12]: 2.8 ± 0.7 nM | EC50 [13]: 2.2 ± 0.1 nM | FC P142S [13, 22]: 1.4 | EC50 [14]: 4.6 ± 0.7 nM | FC S230R [14]: 2.9 | EC50 [15]: 1.4 ± 0.2 nM | FC R231G [15]: 0.9 | EC50 [16, 25]: 4.2 ± 0.2 nM | EC50 ([16]; read-out: EC50 values R231K, single round infection, n = 4): < 5 nM | EC50 [17]: 1.6 ± 0.9 nM | EC50 [18]: 4.3 ± 1.2 nM | EC50 [19]: 3.6 ± 1.3 nM | EC50 [20]: 5.8 ± 0.5 nM | EC50 [21]: 13 ± 5 nM
